Source: patent publication US20130225548A1, “Pyridine Derivative and Medicinal Agent” (NIPPON SHINYAKU CO., LTD., priority 2010, published 2013)
Counter-ions that a name gives are not always drawn.

What follows are compounds tested against T1, Syk tyrosine kinase (Homo sapiens, UniProt P43405) (assay: Test for Syk tyrosine kinase inhibitory activity (ELISA)). Details: Syk tyrosine kinase (Carna Biosciences), 25 μM ATP in substrate solution, 30° C. 1 hour, n=2; read-out: Evaluation (IC50, concentration inhibiting the tyrosine kinase activity at 50%).
T1 construct: purchased Carna Biosciences, Inc
Format: biochemical
Protocol: Test Example 1: Test for Syk Tyrosine Kinase Inhibitory Activity
1. Preparation of Test Substance
A test substance was prepared at 10 mM in dimethyl sulfoxide (DMSO), and further diluted with DMSO to concentrations of 1000, 300, 100, 30, 10, 3, 1, 0.3, 0.1, 0.03, and 0.01 μM. The resulting solutions were further diluted to 20-fold with an assay buffer, whereby test substance solutions were prepared. As a negative control, a solution obtained by diluting DMSO to 20-fold with an assay buffer was used. As the assay buffer, a buffer containing 15 mM Tris-HCl (pH 7.5), 0.01 (v/v) % Tween-20, and 1 mM dithiothreitol was used.
2. Measurement of Syk Tyrosine Kinase Inhibitory Activity
The activity was measured using the ELISA method. Each of the test substance solutions was added to a streptavidine-coated 96-well place (DELFIA Strip Plate 8×12 wells, PerkinElmer Co., Ltd,) at 10 μL per well (n=2), and a substrate solution (625 nM biotinylated peptide substrate, 25 μM ATP, 25 mM MgCl2, 15 mM Tris-HCl (pH 7.5), 0.01 (v/v) % Tween-20, 1 mM dithiothreitol) was added to the plate at 20 μL per well, and the resulting mixture was stirred. Finally, Syk tyrosine kinase (Carna Biosciences, Inc.) (previously diluted to 0.025 nM with the assay buffer) was added to the plate at 20 μL per well, and the resulting mixture was stirred. A reaction was allowed to proceed at 30° C. for 1 hour. After the plate was washed 4 times with a washing buffer (50 mM Tris-HCl (pH 7.5, 150 mM NaCl, 0.02 (v/v) % Tween-20), a blocking buffer (0.1% bovine serum albumin, 50 mM Tris-HCl (pH 7.5), 150 mM NaCl, 0.02 (v/v) % Tween-20) was added to the plate at 150 μL per well, and blocking was performed at 30° C. for 30 minutes. Then, the blocking buffer was removed, and a horseradish peroxidase-labeled anti-phosphorylated tyrosine antibody (BD Biosciences, Inc.) (previously diluted to 10000-fold with the blocking buffer) was added to the plate at 100 μL per well, and the plate was incubated at 30° C. for 30 minutes. After the plate was washed 4 times with the washing buffer, a 3,3′,5,5′-tetramethylbenzidine solution (Sigma-Aldrich Co., Ltd.) was added to the plate at 100 μL per well to develop the color for 10 minutes. The reaction was stopped by adding 0.1 M sulfuric acid at 100 μL per well. The absorbance at 450 nm was measured using a microplate reader (Multiskan F C, Thermo Fisher Scientific K,K.).
3. Analysis of Measurement Results
A non-linear regression analysis was performed for the measured absorbance using the SAS system (SAS institute. Inc.), and a concentration of each of the test substances: inhibiting the tyrosine kinase activity at 50% (IC50 ) was calculated. A case where IC50 is […] was evaluated as ***, a case where IC50 is 5 nM or more and less than 50 nM was evaluated as **, and a case where IC50 is 50 nM or more and less than 500 nM was evaluated as *, which are shown in the column of evaluation item.

| Compound | IC50 |
| --- | --- |
| 2-({4-cyclopropyl-6-[2-ethyl-1-(trans-4-hydroxycyclohexyl)-1H-benzimidazol-6-yl]pyridin-2-yl}amino)pyridine-4-carbonitrile hydrochloride [Example 157] | < 5 nM |
| 2-({6-[1-(4-cyanopiperidin-1-yl)isoquinolin-7-yl]-4-cyclopropylpyridin-2-yl}amino)pyridine-4-carbonitrile hydrochloride [Example 170] | 5 to 50 nM |
| CC(=O)O[C@@H]1CCC[C@H]1n1cnc2ccc(-c3cc(C4CC4)cc(Nc4cc(C#N)ccn4)n3)cc21 (relative stereo) [Example 141, trans-2-(6-{6-[(4-cyanopyridin-2-yl)amino]-4-cyclopropylpyridin-2-yl}-1H-benzimidazol-1-yl)cyclopentyl acetate hydrochloride] | 50 to 500 nM |
| N#Cc1ccnc(Nc2cc(C3CC3)cc(-c3ccc4ncn([C@@H]5CCCC[C@H]5O)c4c3)n2)c1 (relative stereo) [Example 146, 2-[(4-cyclopropyl-6-{1[trans-2-hydroxycyclohexyl]-1H-benzimidazol-6-yl}pyridin-2-yl)amino]pyridine-4-carbonitrile hydrochloride] | 5 to 50 nM |
| N#Cc1ccnc(Nc2cc(C3CC3)cc(-c3ccc4c(c3)ncn4[C@@H]3CCCC[C@H]3O)n2)c1 (relative stereo) [Example 152, 2-[(4-cyclopropyl-6-{1-[trans-2-hydroxycyclohexyl]-1H-benzimidazol-5-yl}pyridin-2-yl)amino]pyridine-4-carbonitrile hydrochloride] | 50 to 500 nM |
| N#Cc1ccnc(Nc2cc(C3CC3)cc(-c3ccc(N4CCOCC4)nc3)n2)c1 [Example 1, 2-{[4-cyclopropyl-6′-(morpholin-4-yl)-2,3′-bipyridin-6-yl]amino}pyridine-4-carbonitrile hydrochloride] | 5 to 50 nM |
| N#Cc1ccnc(Nc2cc(C3CC3)cc(-c3ccc(NCCO)nc3)n2)c1 [Example 2, 2-({4-cyclopropyl-6′-[(2-hydroxyethyl)amino]-2,3′-bypyridin-6-yl}amino)pyridine-4-carbonitrile hydrochloride] | 5 to 50 nM |
| N#Cc1ccnc(Nc2cc(C3CC3)cc(-c3ccc(N4CCS(=O)(=O)CC4)nc3)n2)c1 [Example 3, 2-{[4-cyclopropyl-6′-(1,1-dioxidethiomorpholin-4-yl)-2,3′-bipyridin-6-yl]amino}pyridine-4-carbonitrile hydrochloride] | < 5 nM |
| N#Cc1ccnc(Nc2cc(C3CC3)cc(-c3ccc(N4CCC(=O)CC4)nc3)n2)c1 [Example 4, 2-{[4-cyclopropyl-6′-(4-oxopiperidin-1-yl)-2,3′-bipyridin-6-yl]amino}pyridine-4-carbonitrile hydrochloride] | 5 to 50 nM |
| N#Cc1ccnc(Nc2cc(C3CC3)cc(-c3ccc(N4CCNC(=O)C4)nc3)n2)c1 [Example 5, 2-{[4-cyclopropyl-6′-(3-oxopiperazin-1-yl)-2,3′-bipyridin-6-yl]amino}pyridine-4-carbonitrile hydrochloride] | 5 to 50 nM |
| N#Cc1ccnc(Nc2cc(C3CC3)cc(-c3ccc(N4CC(O)C4)nc3)n2)c1 [Example 6, 2-{[4-cyclopropyl-6′-(3-hydroxyazetidin-1-yl)-2,3′-bipyridin-6-yl]amino}pyridine-4-carbonitrile hydrochloride] | 5 to 50 nM |
| N#Cc1ccnc(Nc2cc(C3CC3)cc(-c3ccc(N4CCN(CC(N)=O)CC4)nc3)n2)c1 [Example 7, 2-(4-{6-[(4-cyanopyridin-2-yl)amino]-4-cyclopropyl-2,3′-bipyridin-6′-yl}piperazin-1-yl)acetamide hydrochloride] | 50 to 500 nM |
| N#Cc1ccnc(Nc2cc(C3CC3)cc(-c3ccc(N4C[C@H](O)CC4=O)nc3)n2)c1 [Example 8, 2-({4-cyclopropyl-6′-[(4R)-4-hydroxy-2-oxopyrrolidin-1-yl]-2,3′-bipyridin-6-yl}amino)pyridine-4-carbonitrile hydrochloride] | 50 to 500 nM |
| CC(=O)N1CCCN(c2ccc(-c3cc(C4CC4)cc(Nc4cc(C#N)ccn4)n3)cn2)CC1 [Example 9, 2-{[6′-(4-acetyl-1,4-diazepan-1-yl)-4-cyclopropyl-2,3′-bipyridin-6-yl]amino}pyridine-4-carbonitrile hydrochloride] | 50 to 500 nM |
| N#Cc1ccnc(Nc2cc(C3CC3)cc(-c3ccc(N4CCCN(C(N)=O)CC4)nc3)n2)c1 [Example 10, 4-{6-[(4-cyanopyridin-2-yl)amino]-4-cyclopropyl-2,3′-bipyridin-6′-yl}-1,4-diazepane-1-carboxamide hydrochloride] | 5 to 50 nM |
| N#Cc1ccnc(Nc2cc(C3CC3)cc(-c3ccc(N4C[C@@H](O)CC4=O)nc3)n2)c1 [Example 11, 2-({4-cyclopropyl-6′-[(4S)-4-hydroxy-2-oxopyrrolidin-1-yl]-2,3′-bipyridin-6-yl}amino)pyridine-4-carbonitrile hydrochloride] | 50 to 500 nM |
| N#Cc1ccnc(Nc2cc(C3CC3)cc(-c3ccc(N[C@H]4CC[C@H](O)CC4)nc3)n2)c1 [Example 12, 2-({4-cyclopropyl-6′-[(trans-4-hydroxycyclohexyl)amino]-2,3′-bipyridin-6-yl}amino)pyridine-4-carbonitrile hydrochloride] | 50 to 500 nM |
| N#Cc1ccnc(Nc2cc(C3CC3)cc(-c3ccc4c(c3)ncn4CCN)n2)c1 [Example 13, 2-({6-[1-(2-aminoethyl)-1H-benzimidazol-5-yl]-4-cyclopropylpyridin-2-yl}amino)pyridine-4-carbonitrile hydrochloride] | 5 to 50 nM |
| N#Cc1ccnc(Nc2cc(C3CC3)cc(-c3ccc4c(c3)ncn4[C@H]3CC[C@H](O)CC3)n2)c1 [Example 14, 2-({4-cyclopropyl-6-[1-(trans-4-hydroxycyclohexyl)-1H-benzimidazol-5-yl]pyridin-2-yl}amino)pyridine-4-carbonitrile hydrochloride] | 5 to 50 nM |
| Cn1cnc2cc(-c3cc(C4CC4)cc(Nc4cc(C#N)ccn4)n3)ccc21 [Example 15, 2-{[4-cyclopropyl-6-(1-methyl-1H-benzimidazol-5-yl)pyridin-2-yl]amino}pyridine-4-carbonitrile hydrocloride] | 5 to 50 nM |
| N#Cc1ccnc(Nc2cc(C3CC3)cc(-c3ccc4c(c3)ncn4C3CCOCC3)n2)c1 [Example 16, 2-({4-cyclopropyl-6-[1-tetrahydro-2H-pyran-4-yl)-1H-benzimidazol-5-yl]pyridin-2-yl}amino)pyridine-4-carbonitrile hydrochloride] | 5 to 50 nM |
| N#Cc1ccnc(Nc2cc(C3CC3)cc(-c3ccc(C#N)nc3)n2)c1 [Example 17, 6-[(4-cyanopyridin-2-yl)amino]-4-cyclopropyl-2,3′-bipyridine-6′-carbonitrile hydrochloride] | 50 to 500 nM |
| N#Cc1ccnc(Nc2cc(C3CC3)cc(-c3ccc(N)nc3)n2)c1 [Example 18, 2-[(6′-amino-4-cyclopropyl-2,3′-bipyridin-6-yl)amino]pyridine-4-carbonitrile hydrochloride] | 5 to 50 nM |
| N#Cc1ccnc(Nc2cc(C3CC3)cc(-c3ccc(NCCN)nc3)n2)c1 [Example 19, 2-({6′-[(2-aminoethyl)amino]-4-cyclopropyl-2,3′-bipyridin-6-yl}amino)pyridine-4-carbonitrile dihydrochloride] | < 5 nM |
